{
  "source": "patent US5244886A",
  "about": "“11β-phenyl-14βH steroids” (Schering Aktiengesellschaft, priority 1988, dated 1993)",
  "data": [
    {"tested_on": "mammary gland (tubulo-alveolar gland end pieces)", "assay": "Antiproliferative potency of progesterone antagonists on the mammary gland, bioassay in ovariectomized rats (whole mount, inguinal mammary gland)", "type": "in vivo, rat", "conditions": "3 days, estrone 10 micrograms + progesterone 3 mg, antagonist 1 mg/animal/day, relative to G = 100%", "method": "The antiproliterative potency of progesterone antagonists on the mammary gland was determined in a bioassay. For this purpose, ovariectomized rats were substituted for 3 days with estrone (10 micrograms) and progesterone (3 mg) and another group at the same time was treated with the following progesterone antagonists (1 mg/animal/day):\nThe entire inguinal mammary gland was dissected by performance of the \"whole mount\" technique (Lyons and Johnson, 1952). Of six animals, the number of tubulo-alveolar gland end pieces is determined by 40 times magnification.\nThe antiproliterative potency is expressed in percent of the inhibition of the tubulo-alveolar end pieces corresponding to the following formula:\n(estrone (E)+progesterone (P))-(E+P+G)=100% of treated animals\n(E+P)-(test compound H or I)=X%", "units": {"% inhibition of the tubulo-alveolar end pieces": "%"}, "values": [
      {"smiles": "C[C@]12C[C@H](c3ccc(-c4cccnc4)cc3)C3=C4CCC(=O)C=C4CC[C@H]3[C@H]1CC[C@]2(O)CCCO", "note": "[H, 11beta-[4-(3-pyridyl)phenyl]-17alpha-hydroxy-17-(3-hydroxypropyl)-14beta-estra-4,9-dien-3-one]", "% inhibition of the tubulo-alveolar end pieces": 92},
      {"smiles": "CC#C[C@]1(O)CC[C@H]2[C@@H]3CCC4=CC(=O)CCC4=C3[C@@H](c3ccc(C(C)=O)cc3)C[C@@]21C", "note": "[G, 11beta-(4-acetylphenyl)-17beta-hydroxy-17alpha-(1-propinyl)-4,9-estradien-3-one]", "% inhibition of the tubulo-alveolar end pieces": 100},
      {"smiles": "CN(C)c1ccc([C@H]2C[C@@]3(C)[C@H](CC[C@]34CCCO4)[C@@H]3CCC4=CC(=O)CCC4=C32)cc1", "note": "[I, 11beta-(4-dimethylaminophenyl)-4,5-dihydro-spiro[14beta-estra-4,9-diene-17alpha,2'(3'H)-furan]-3-one]", "% inhibition of the tubulo-alveolar end pieces": 13}
    ]},
    {"tested_on": "Antiglucocorticoid effectiveness", "assay": "Antiglucocorticoid effectiveness in % of RU 486", "conditions": "RU 486 effectiveness = 100%", "excerpt": "Antiglucocorticoid effectiveness of compounds A to G;\nthe effectiveness is indicated in % of th", "units": {"Antiglucocorticoid effectiveness (in % of RU 486)": "%"}, "values": [
      {"smiles": "COc1ccc2c(c1)C[C@]13CCC(=O)C=C1CC[C@@H]1[C@@H]3[C@@H]2C[C@@]2(C)[C@@H]1CC[C@]2(O)CCCO", "note": "[C, 17-hydroxy-17beta-(3-hydroxypropyl)-11beta,19-(4-methoxy-o-phenylene)-14beta-androst-4-en-3-one]", "Antiglucocorticoid effectiveness (in % of RU 486)": 0},
      {"smiles": "CC#C[C@@]1(O)CC[C@@H]2[C@@H]3CCC4=CC(=O)CCC4=C3[C@@H](c3ccc(C(C)=O)cc3)C[C@@]21C", "note": "[A, 11beta-(4-acetylphenyl)-17alpha-hydroxy-17-(prop-1-inyl)-14beta-estra-4,9-dien-3-one]", "Antiglucocorticoid effectiveness (in % of RU 486)": 1},
      {"smiles": "C=Cc1ccc2c(c1)C[C@]13CCC(=O)C=C1CC[C@@H]1[C@@H]3[C@@H]2C[C@@]2(C)[C@@H]1CC[C@]2(O)CCCO", "note": "[E, 17-hydroxy-17beta-(3-hydroxypropyl)-11beta,19-(4-vinyl-o-phenylene)-14beta-androst-4-en-3-one]", "Antiglucocorticoid effectiveness (in % of RU 486)": 1},
      {"smiles": "CN(C)c1ccc([C@H]2C[C@@]3(C)[C@H](CC[C@]3(O)CCCO)[C@@H]3CCC4=CC(=O)CCC4=C32)cc1", "note": "[F, 11beta-(4-dimethylaminophenyl)-17alpha-hydroxy-17-(3-hydroxypropyl)-14beta-estra-4,9-dien-3-one, reference compound]", "Antiglucocorticoid effectiveness (in % of RU 486)": 2},
      {"smiles": "C[C@]12C[C@@H]3c4ccc(-c5cccnc5)cc4C[C@]45CCC(=O)C=C4CC[C@H]([C@H]35)[C@H]1CC[C@]2(O)CCCO", "note": "[D, 17-hydroxy-17beta-(3-hydroxypropyl)-11beta,19-(4-(3-pyridyl)-o-phenylene]-14beta-androst-4-en-3-one]", "Antiglucocorticoid effectiveness (in % of RU 486)": 0},
      {"smiles": "C#CC[C@@]1(O)CC[C@@H]2[C@@H]3CCC4=CC(=O)CCC4=C3[C@@H](c3ccc(C(C)=O)cc3)C[C@@]21C", "note": "[B, 11beta-(4-acetylphenyl)-17alpha-hydroxy-17-(prop-2-inyl)-14beta-estra-4,9-dien-3-one]", "Antiglucocorticoid effectiveness (in % of RU 486)": 1}
    ]}
  ]
}
